Patent publication US11053204B2, “Pyrimidinyloxy benzene derivatives as herbicides” (FMC Corporation, priority 2015, dated 2021)

Legend:
Type in all cases: in vivo
[1] = test system: Italian ryegrass (Lolium multiflorum); assay: Test A preemergence, visual injury rating
Outline: (§1)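 Visual 0–100 rating (100 = complete control) taken about 10 d post-treatment relative to untreated checks. Preemergence: directed soil spray on sown loam/sand pots. Postemergence: seedlings 2–10 cm, 1–2 leaf. Non-phytotoxic solvent formulation with surfactant.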

[2] = test system: barnyardgrass (Echinochloa crus-galli); assay: Test A preemergence, visual injury rating
Outline: as §1

[3] = test system: giant foxtail (Setaria faberii); assay: Test A preemergence, visual injury rating
Outline: as §1

[4] = test system: kochia (Kochia scoparia); assay: Test A preemergence, visual injury rating
Outline: as §1

[5] = test system: pigweed (Amaranthus retroflexus); assay: Test A preemergence, visual injury rating
Outline: as §1

[6] = test system: ragweed (common ragweed, Ambrosia elatior); assay: Test A preemergence, visual injury rating
Outline: as §1

[7] = test system: Italian ryegrass (Lolium multiflorum); assay: Test A postemergence, visual injury rating
Outline: as §1

[8] = test system: barnyardgrass (Echinochloa crus-galli); assay: Test A postemergence, visual injury rating; details: 0 is no effect, 100 is complete control; for Barnyardgrass plant response rating: 0 to 100 scale, approximately 10 days
Outline: as §1

[9] = test system: blackgrass (Alopecurus myosuroides); assay: Test A postemergence, visual injury rating
Outline: as §1

[10] = test system: corn (Zea mays); assay: Test A postemergence, visual injury rating
Outline: as §1

[11] = test system: galium (catchweed bedstraw, Galium aparine); assay: Test A postemergence, visual injury rating
Outline: as §1

[12] = test system: giant foxtail (Setaria faberii); assay: Test A postemergence, visual injury rating
Outline: as §1

[13] = test system: kochia (Kochia scoparia); assay: Test A postemergence, visual injury rating
Outline: as §1

[14] = test system: pigweed (Amaranthus retroflexus); assay: Test A postemergence, visual injury rating
Outline: as §1

[15] = test system: ragweed (common ragweed, Ambrosia elatior); assay: Test A postemergence, visual injury rating
Outline: as §1

[16] = test system: wheat (Triticum aestivum); assay: Test A postemergence, visual injury rating
Outline: as §1

[17] = test system: barnyardgrass (Echinochloa crus-galli); assay: Test B flooded paddy test, plant response rating; details: 250 g ai/ha; Flood; scale of 0 to 100 where 0 is no effect and 100 is complete control; 13 to 15 days
Outline: (§2)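 Greenhouse pots flooded to 3 cm above soil at time of treatment received compound via the water, which stayed at that level.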

[18] = test system: ducksalad (Heteranthera limosa); assay: Test B flooded paddy test, plant response rating; details: 250 g ai/ha; Flood; scale of 0 to 100 where 0 is no effect and 100 is complete control; 13 to 15 days
Outline: as §2

[19] = test system: rice (Oryza sativa); assay: Test B flooded paddy test, plant response rating; details: 250 g ai/ha; Flood; scale of 0 to 100 where 0 is no effect and 100 is complete control; 13 to 15 days
Outline: as §2

[20] = test system: sedge, umbrella (small-flower umbrella sedge, Cyperus difformis); assay: Test B flooded paddy test, plant response rating; details: 250 g ai/ha; Flood; scale of 0 to 100 where 0 is no effect and 100 is complete control; 13 to 15 days
Outline: as §2

[21] = test system: barnyardgrass (Echinochloa crus-galli); assay: Test C flooded paddy test, plant response rating; details: flood, scale 0 to 100
Excerpt: (§3) At the same time, plants selected from these crop and weed species and also chickweed (common chickweed, Stellaria media), buckwheat, wild (wild buckwheat, Polygonum convolvulus), wild mustard (Sinapis arvensis), field poppy (Papaver rhoeas), field violet (Viola arvensis), geranium, cutleaf (cutleaf geranium, Geranium dissectum), Canada thistle (Cirsium arvense), and speedwell (bird's-eye speedwell, Veronica persica), were planted in pots containing Sunshine Redi-Earth® planting medium comprising spaghnum peat moss, vermiculite, starter nutrients and dolomitic limestone and treated with postemergence applications of test chemicals formulated in the same manner. Plants ranged in height from 2 to 18 cm (1- to 4-leaf stage) for postemergence treatments. Treated plants and controls were maintained in a greenhouse for 13 to 15 d, after which time all species were compared to controls and visually evaluated. Plant response ratings, summarized in Table C, are based on a scale of 0 to 100 where 0 is no effect and 100 is complete control. A dash (-) response means no test result.
(§4) Plant species in the flooded paddy test consisted of rice (Oryza sativa), sedge, umbrella (small-flower umbrella sedge Cyperus difformis), ducksalad (Heteranthera limosa), and barnyardgrass (Echinochloa crus-galli) grown to the 2-leaf stage for testing. At time of treatment, test pots were flooded to 3 cm above the soil surface, treated by application of test compounds directly to the paddy water, and then maintained at that water depth for the duration of the test.

[22] = test system: ducksalad (Heteranthera limosa); assay: Test C flooded paddy test, plant response rating; details: flood, scale 0 to 100
Excerpt: as §3, §4

[23] = test system: rice (Oryza sativa); assay: Test C flooded paddy test, plant response rating; details: flood, scale 0 to 100
Excerpt: as §3, §4

[24] = test system: sedge, umbrella (small-flower umbrella sedge Cyperus difformis); assay: Test C flooded paddy test, plant response rating; details: flood, scale 0 to 100
Excerpt: as §3, §4

[25] = 31 g ai/ha, 0 to 100 scale, 0 no effect, 100 complete control
[26] = 125 g ai/ha, 0 to 100 scale (0 no effect, 100 complete control)
[27] = 31 g ai/ha, 0 to 100 scale, 0 is no effect, 100 is complete control, approximately 10 days
[28] = 125 g ai/ha, 0 is no effect, 100 is complete control
[29] = 31 g ai/ha, 0 to 100 scale (0 no effect, 100 complete control)
[30] = 125 g ai/ha, 0 to 100 scale, 0 is no effect, 100 is complete control, approximately 10 days

Structure (SMILES): FC(F)(F)COCc1c(Br)cccc1Oc1ncc(Cl)cn1 [Compound 62]
- Plant response rating, Ryegrass, Italian [1, 25]: 0
- Ryegrass, Italian plant response rating [1, 26]: 10
- Plant response rating, Barnyardgrass [2, 25]: 30
- Barnyardgrass plant response rating [2, 26]: 70
- Plant response rating, Foxtail, Giant [3, 25]: 30
- Foxtail, Giant plant response rating [3, 26]: 100
- Plant response rating, Kochia [4, 25]: 20
- Kochia plant response rating [4, 26]: 70
- Plant response rating, Pigweed [5, 25]: 60
- Pigweed plant response rating [5, 26]: 90
- Plant response rating, Ragweed [6, 25]: 0
- Ragweed plant response rating [6, 26]: 0
- Ryegrass, Italian plant response rating [7, 27]: 0
- Ryegrass, Italian plant response rating (0 to 100 scale) [7, 28]: 0
- Barnyardgrass plant response rating ([8]; 31 g ai/ha): 20
- Barnyardgrass plant response rating (0 to 100 scale) ([8]; 125 g ai/ha): 40
- Blackgrass plant response rating [9, 27]: 0
- Blackgrass plant response rating (0 to 100 scale) [9, 28]: 40
- Corn plant response rating [10, 27]: 0
- Corn plant response rating (0 to 100 scale) [10, 28]: 30
- Galium plant response rating [11, 27]: 30
- Galium plant response rating (0 to 100 scale) [11, 28]: 80
- Foxtail, Giant plant response rating [12, 27]: 0
- Foxtail, Giant plant response rating (0 to 100 scale) [12, 28]: 40
- Kochia plant response rating [13, 27]: 60
- Kochia plant response rating (0 to 100 scale) [13, 28]: 100
- Pigweed plant response rating [14, 27]: 50
- Pigweed plant response rating (0 to 100 scale) [14, 28]: 90
- Ragweed plant response rating [15, 27]: 0
- Ragweed plant response rating (0 to 100 scale) [15, 28]: 0
- Wheat plant response rating [16, 27]: 0
- Wheat plant response rating (0 to 100 scale) [16, 28]: 0
- Plant response rating, Barnyardgrass [17]: 40
- Plant response rating, Ducksalad [18]: 100
- Plant response rating, Rice [19]: 0
- Plant response rating, Sedge, Umbrella [20]: 90
- Barnyardgrass plant response rating ([21]; 16 g ai/ha): 0
- Barnyardgrass plant response rating ([21]; 31 g ai/ha): 0
- Barnyardgrass plant response rating ([21]; 62 g ai/ha): 0
- Barnyardgrass plant response rating ([21]; 125 g ai/ha): 20
- Ducksalad plant response rating ([22]; 16 g ai/ha): 0
- Ducksalad plant response rating ([22]; 31 g ai/ha): 0
- Ducksalad plant response rating ([22]; 62 g ai/ha): 40
- Ducksalad plant response rating ([22]; 125 g ai/ha): 75
- Rice plant response rating ([23]; 16 g ai/ha): 0
- Rice plant response rating ([23]; 31 g ai/ha): 0
- Rice plant response rating ([23]; 62 g ai/ha): 0
- Rice plant response rating ([23]; 125 g ai/ha): 10
- Sedge, Umbrella plant response rating ([24]; 16 g ai/ha): 0
- Sedge, Umbrella plant response rating ([24]; 31 g ai/ha): 0
- Sedge, Umbrella plant response rating ([24]; 62 g ai/ha): 60
- Sedge, Umbrella plant response rating ([24]; 125 g ai/ha): 65

Structure (SMILES): N#Cc1cccc(Oc2ncc(Cl)cn2)c1C(=O)CCC(F)(F)F [Compound 142]
- Plant response rating, Ryegrass, Italian [1, 25]: 0
- Plant response rating, Ryegrass, Italian [1, 26]: 0
- Plant response rating, Barnyardgrass [2, 25]: 0
- Plant response rating, Barnyardgrass [2, 26]: 0
- Plant response rating, Foxtail, Giant [3, 25]: 0
- Plant response rating, Foxtail, Giant [3, 26]: 0
- Plant response rating, Kochia [4, 25]: 0
- Plant response rating, Kochia [4, 26]: 0
- Plant response rating, Pigweed [5, 25]: 0
- Plant response rating, Pigweed [5, 26]: 0
- Plant response rating, Ragweed [6, 25]: 0
- Plant response rating, Ragweed [6, 26]: 0
- Ryegrass, Italian plant response rating [7, 29]: 0
- Ryegrass, Italian plant response rating [7, 30]: 0
- Barnyardgrass plant response rating ([8]; 31 g ai/ha): 0
- Barnyardgrass plant response rating ([8]; 125 g ai/ha): 0
- Blackgrass plant response rating [9, 29]: 0
- Blackgrass plant response rating [9, 30]: 0
- Corn plant response rating [10, 29]: 0
- Corn plant response rating [10, 30]: 10
- Galium plant response rating [11, 29]: 0
- Galium plant response rating [11, 30]: 20
- Foxtail, Giant plant response rating [12, 29]: 0
- Foxtail, Giant plant response rating [12, 30]: 0
- Kochia plant response rating [13, 29]: 0
- Kochia plant response rating [13, 30]: 10
- Pigweed plant response rating [14, 29]: 0
- Pigweed plant response rating [14, 30]: 20
- Ragweed plant response rating [15, 29]: 0
- Ragweed plant response rating [15, 30]: 20
- Wheat plant response rating [16, 29]: 0
- Wheat plant response rating [16, 30]: 0
- Plant response rating, Barnyardgrass [17]: 0
- Plant response rating, Ducksalad [18]: 0
- Plant response rating, Rice [19]: 0
- Plant response rating, Sedge, Umbrella [20]: 0
